From paper PMC7255801, “Disease-associated mutations in the human TRPM3 render the channel overactive via two distinct mechanisms” (eLife, 2020)

Legend:
Type in all cases: cell-based
[1] = molecular target: T1, human M2 muscarinic receptors co-expressed with hTRPM3_1325 V990M (Homo sapiens, UniProt P08172); test: M2 muscarinic receptor inhibition of TRPM3 currents, oocytes, V990M mutant; conditions: 5 μM ACh, 100 mV
T1 construct: expressed in transfected cells; host or cells: Xenopus laevis oocytes (cRNA injection)
T1 sequence (P08172 1-466): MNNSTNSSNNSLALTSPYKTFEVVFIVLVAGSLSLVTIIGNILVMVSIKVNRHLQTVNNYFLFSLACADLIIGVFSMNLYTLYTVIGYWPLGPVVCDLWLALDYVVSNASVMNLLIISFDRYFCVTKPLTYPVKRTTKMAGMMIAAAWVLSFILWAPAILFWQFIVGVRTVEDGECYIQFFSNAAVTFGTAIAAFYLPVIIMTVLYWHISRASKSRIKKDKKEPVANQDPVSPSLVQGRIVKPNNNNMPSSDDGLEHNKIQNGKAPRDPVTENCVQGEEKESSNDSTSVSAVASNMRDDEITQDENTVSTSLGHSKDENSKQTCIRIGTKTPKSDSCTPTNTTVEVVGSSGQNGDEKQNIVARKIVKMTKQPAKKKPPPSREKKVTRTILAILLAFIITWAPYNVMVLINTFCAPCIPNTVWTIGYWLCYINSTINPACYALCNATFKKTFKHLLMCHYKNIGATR
Procedure: (§1) Xenopus laevis oocytes were prepared as described earlier ([Badheka et al., 2015]). All animal procedures were approved by the Institutional Animal Care and Use Committee at Rutgers New Jersey Medical School. In brief, frogs were anesthetized in 0.25% ethyl 3-aminobenzoate methanesulfonate solution (MS222; Sigma-Aldrich); bags of ovaries were removed surgically from the anesthetized frogs. Individual oocytes were obtained by overnight digestion at 16°C in 0.2–0.3 mg/ml type 1A collagenase (Sigma-Aldrich), dissolved in a solution containing 82.5 mM NaCl, 2 mM KCl, 1 mM MgCl2, and […] HEPES, pH 7.4 (OR2 solution). The next day the collagenase containing solution was discarded and the oocytes were washed multiple times with OR2 solution. The oocytes were maintained in OR2 solution supplemented with 1.8 mM CaCl2, 100 IU/ml penicillin, and 100 μg/ml streptomycin at 16°C. cRNA was transcribed from the linearized human TRPM3 (hTRPM3) cDNA clone ([Grimm et al., 2003]), or its mutants in the pGEMSH vector using the mMessage mMachine kit (Thermo Fisher Scientific). cRNA (40 ng) was microinjected into individual oocytes, using a nanoliter-injector system (Warner Instruments). For combined injection of wild-type and mutant TRPM3 for Figures 4E–G, […] total cRNA was injected in a 1:1 ratio. […]

[2] = molecular target: T2, human M2 muscarinic receptors co-expressed with wild-type hTRPM3_1325 (Homo sapiens, UniProt P08172); test: M2 muscarinic receptor inhibition of TRPM3 currents, oocytes, wild type channel; conditions: read-out: Inhibition of TRPM3 currents induced by 50 μM PregS
T2 construct: expressed in transfected cells; host or cells: Xenopus laevis oocytes (cRNA injection)
T2 sequence (P08172 1-466): T1 sequence (P08172 1-466)
Procedure: as §1

[3] = molecular target: T3, hTRPM3α2 P1092Q (Homo sapiens, UniProt Q9HCF6, P1115Q); test: Intracellular Ca2+ assay (GCaMP6f) in 96-well plates, HEK293 cells, P1092Q mutant; conditions: very high basal Ca2+ levels
T3 construct: host or cells: HEK293
Procedure: (§2) Intracellular Ca^2+ measurements were performed using a Flexstation-3 96‐well plate reader with rapid well injection (Molecular Devices) as described earlier ([Hughes et al., 2019]) with some modifications. Briefly Human Embryonic Kidney 293 (HEK293) cells were purchased from American Type Culture Collection (ATCC), Manassas, VA, (catalogue number CRL-1573), RRID:CVCL_0045; cell identity was verified by STR analysis by ATCC. HEK293 cells were cultured in MEM supplemented with 10% FBS and 100 IU/ml penicillin plus 100 µg/ml streptomycin in 5% CO2 at 37°C. Additional cell authentication was not performed, but passage number of the cells was monitored, and cells were used up to passage number 25–30 from purchase, when a new batch of cells was thawed with low passage number; cells were tested for the lack of mycoplasma infection. HEK293 cells were transfected with hTRPM3α2-GFP, or its mutants (200 ng) and GCaMP6 (1 μg) using the Effectene reagent (Qiagen). […] GCaMP6 signal was measured at excitation wavelengths 485 nm and fluorescence emission was detected at 525 nm. Sampling interval was 0.86 s and four parallel reads were performed for each condition. […] For measurements at 37°C the MEM medium used to culture the cells was replaced with the measurement solution preheated to 37°C, and the plate was placed in the plate reader warmed to 37°C using its built-in temperature controller.

[4] = molecular target: T4, hTRPM3α2 V992M (Homo sapiens, UniProt Q9HCF6, V1015M); test: Intracellular Ca2+ assay (GCaMP6f) in 96-well plates, HEK293 cells, V992M mutant; conditions: very high basal Ca2+ levels
T4 construct: host or cells: HEK293
Procedure: as §2

T4 sequence (Q9HCF6 1-1709 isoform Q9HCF6-5 V992M): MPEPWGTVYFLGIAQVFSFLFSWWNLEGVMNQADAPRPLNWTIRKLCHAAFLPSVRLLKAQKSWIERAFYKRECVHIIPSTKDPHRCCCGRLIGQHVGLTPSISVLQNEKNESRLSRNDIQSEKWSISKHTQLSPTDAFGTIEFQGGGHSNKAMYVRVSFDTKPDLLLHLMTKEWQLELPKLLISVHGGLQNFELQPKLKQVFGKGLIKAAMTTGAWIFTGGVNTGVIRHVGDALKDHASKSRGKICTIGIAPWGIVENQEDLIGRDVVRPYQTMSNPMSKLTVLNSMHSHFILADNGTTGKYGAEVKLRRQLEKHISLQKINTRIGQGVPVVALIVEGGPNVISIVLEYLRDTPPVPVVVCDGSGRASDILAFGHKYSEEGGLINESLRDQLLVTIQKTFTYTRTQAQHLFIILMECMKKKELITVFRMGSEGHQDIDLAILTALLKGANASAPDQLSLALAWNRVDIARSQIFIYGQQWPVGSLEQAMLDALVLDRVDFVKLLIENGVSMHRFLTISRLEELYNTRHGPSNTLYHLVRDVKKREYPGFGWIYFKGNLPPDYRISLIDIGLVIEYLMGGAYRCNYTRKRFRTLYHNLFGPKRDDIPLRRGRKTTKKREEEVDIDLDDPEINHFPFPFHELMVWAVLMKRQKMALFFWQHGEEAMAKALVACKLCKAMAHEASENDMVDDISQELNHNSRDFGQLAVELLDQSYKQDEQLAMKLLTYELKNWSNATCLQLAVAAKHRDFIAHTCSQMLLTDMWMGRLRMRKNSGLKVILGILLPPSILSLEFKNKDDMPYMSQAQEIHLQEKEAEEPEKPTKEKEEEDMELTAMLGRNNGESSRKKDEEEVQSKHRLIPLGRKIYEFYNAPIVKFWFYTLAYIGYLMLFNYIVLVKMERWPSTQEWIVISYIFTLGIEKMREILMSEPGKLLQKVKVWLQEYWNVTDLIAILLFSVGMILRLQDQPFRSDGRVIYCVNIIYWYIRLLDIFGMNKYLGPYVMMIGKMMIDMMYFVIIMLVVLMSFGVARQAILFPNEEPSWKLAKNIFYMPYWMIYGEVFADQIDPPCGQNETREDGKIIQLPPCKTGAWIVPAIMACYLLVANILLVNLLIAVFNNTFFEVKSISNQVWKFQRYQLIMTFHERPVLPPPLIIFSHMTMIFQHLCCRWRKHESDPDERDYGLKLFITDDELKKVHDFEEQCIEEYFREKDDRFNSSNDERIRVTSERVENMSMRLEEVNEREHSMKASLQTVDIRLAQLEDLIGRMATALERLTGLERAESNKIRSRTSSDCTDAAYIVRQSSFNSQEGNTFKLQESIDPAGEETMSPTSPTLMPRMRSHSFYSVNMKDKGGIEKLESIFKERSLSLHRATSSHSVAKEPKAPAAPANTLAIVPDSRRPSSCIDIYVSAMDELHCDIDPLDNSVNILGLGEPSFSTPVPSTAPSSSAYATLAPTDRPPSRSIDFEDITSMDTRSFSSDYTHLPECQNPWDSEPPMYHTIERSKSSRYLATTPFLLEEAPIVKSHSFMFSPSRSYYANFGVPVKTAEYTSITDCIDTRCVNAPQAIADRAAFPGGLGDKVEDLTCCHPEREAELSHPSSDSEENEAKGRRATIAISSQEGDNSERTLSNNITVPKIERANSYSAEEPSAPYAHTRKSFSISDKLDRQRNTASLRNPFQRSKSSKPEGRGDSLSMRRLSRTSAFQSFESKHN
T3 sequence (Q9HCF6 1-1709 isoform Q9HCF6-5 P1092Q): as the sequence (Q9HCF6 1-1709 isoform Q9HCF6-5 V992M) above, with M992V, P1092Q counted along it

| Compound | Inhibition of TRPM3 currents induced by 50 μM PregS [1] | inhibition at 5 µM [2] [%] | Ca2+ response to agonist at 37°C [3] | Ca2+ response to agonist at 37°C [4] |
| --- | --- | --- | --- | --- |
| CC(=O)OCC[N+](C)(C)C [ACh, acetylcholine] | essentially not inhibited | ~50 | – | – |
| pregnenolone sulfate [PregS] | – | – | not further increased | not further increased |
